Source: article PMC6669608, “Evaluation of Oxasqualenoids from the Red Alga Laurencia viridis against Acanthamoeba” (Marine Drugs, 2019)

What was measured:
[1] = system: Acanthamoeba polyphaga trophozoites; assay: In vitro activity against trophozoites of clinical strain A. polyphaga; type: cell-based, Acanthamoeba polyphaga genotype T4 ATCC 30461; conditions: trophozoite stage
Description: (§1) Subsequently, DT was tested against two clinical isolates, A. griffini, genotype T3 obtained in a previous study and A. polyphaga genotype T4 ATCC 30461. Those strains were grown axenically in the same medium as A. castellanii Neff.
(§2) The in vitro activities of the different compounds of Laurencia were evaluated using a previously developed colorimetric assay based on the alamarBlue™ Cell Viability Reagent assay (Life Technologies, Barcelona, Spain). Briefly, 50 µL of 5 × 10⁴ trophozoites/mL were seeded onto a 96-well microtiter plate. After 15 min, the adherence of the cells to the plate bottom was confirmed by the use of the inverted microscope Leica DMIL (Leica, Wetzlar, Germany). Furthermore, 50 µL of serial dilutions of each compound was added to the 96-well microtiter plate. Finally, alamarBlue™ was placed into each well at 10% of the final volume and incubated at 26 °C with slight agitation. After 96 h, the fluorescence was measured with EnSpire Multimode Plate Reader (Perkin Elmer, Madrid, Spain) at a wavelength of 570/585 nm. The inhibitory concentration to inhibit the growth of 50% of the parasites (IC50) was calculated through nonlinear regression analysis with 95% confidence limits using the software Sigma Plot 12.0 (Systat Software Inc., London, UK). The experiments were performed three times each, allowing for standard deviation.

A. castellanii Neff [2] = assay: Analysis of mitochondrial membrane potential (JC-1); type: cell-based, Acanthamoeba castellanii Neff; conditions: IC90, 24 h
Description: Collapse of the electrochemical gradient across the mitochondrial membrane during apoptosis was detected with the JC-1 mitochondrial membrane potential detection kit (Cell Technology, Fremont, CA, USA). After being treated with IC90 of the test compound for 24 h, the cells were centrifuged (1000 rpm × 10 min) and resuspended in JC-1 buffer. Images were taken on an EVOS FL Cell Imaging System AMF4300 (Life Technologies, San Francisco, CA, USA) from Life Technologies (Madrid, Spain). The staining pattern allows the identification of two groups in a cellular population: live cells will show only red fluorescence; cells with low mitochondrial potential, (undergoing PCD) will show a higher level of green and red fluorescence.

[3] = system: Acanthamoeba castellanii Neff trophozoites; assay: In vitro activity against Acanthamoeba trophozoites (alamarBlue colorimetric assay); type: cell-based, Acanthamoeba castellanii Neff (ATCC 30010); conditions: 42.5 µM (25 µg/mL)
A. castellanii Neff [4] = assay: Intracellular ROS production (CellROX Deep Red); type: cell-based, Acanthamoeba castellanii Neff; conditions: IC90, 24 h
Description: Generation of intracellular ROS was detected using the CellROX® Deep Red fluorescent probe (Invitrogen, Thermo Fisher Scientific Inc., Waltham, MA, USA). The cells were treated with IC90 of DT for 24 h and exposed to CellROX® Deep Red (5 μM, 30 min) at 26 °C in the dark.

A. castellanii = assay: Measurement of ATP levels (CellTiter-Glo); type: cell-based, Acanthamoeba castellanii; conditions: IC90, 24 h
Description: The ATP level was measured using a Cell Titer-Glo® Luminescent Cell Viability Assay (Promega, Alcobendas, Madrid). This required adding a single reagent (CellTiter-Glo® Reagent, Promega, Alcobendas, Madrid), which relies on the properties of a proprietary thermostable luciferase, generating a stable proportional luminescent signal to the amount of ATP present, which is directly proportional to the number of cells present in culture. After incubation, treated amoebas were mixed with the kit reagent into a white-wall 96-well microtiter plate (Nunc; Thermo Fisher Scientific Inc., Waltham, MA, USA) following the manufacturer’s instructions for measurement of the luminescence on a PerkinElmer spectrophotometer. The effect of the drug on the ATP production was evaluated by incubating 10^5 cells/mL with the previously calculated IC90 of DT following the manufacturer´s recommendations. As a negative control, an A. castellanii culture incubated with PYG medium was used.

A. castellanii Neff [5] = assay: Double-stain assay (Hoechst 33342/PI) for programmed cell death; type: cell-based, Acanthamoeba castellanii Neff; conditions: IC90, 24 h
Description: A double-stain apoptosis detection kit (Hoechst 33342/PI) (GenScript, Piscataway, NJ, USA) and an EVOS FL Cell Imaging System AMF4300 (Life Technologies, Carlsbad, CA, USA) were used. The experiment was carried out by following the manufacturer’s recommendations, and 10^5 cells/well were incubated in a 24-well plate for 24 h with the previously calculated IC90. The double-staining pattern allows the identification of three groups in a cellular population: live cells will show only a low level of fluorescence, cells undergoing programmed cell death (PCD) will show a higher level of blue fluorescence (as chromatin condenses), and dead cells will show low-blue and high-red fluorescence (as the propidium iodide stain enters the nucleus).

[6] = system: A. castellanii Neff trophozoites; assay: Plasma membrane permeability (SYTOX Green); type: cell-based, Acanthamoeba castellanii Neff; conditions: IC90, 24 h
Description: The SYTOX Green assay was performed to detect alterations of the membrane permeability in treated cells. Briefly, 10^5 trophozoites were washed and incubated in saline solution with the SYTOX Green at a final concentration of 1 μM (Molecular Probes) for 15 min in the dark. Subsequently, DT solution was added (IC90).

[7] = system: Acanthamoeba griffini trophozoites; assay: In vitro activity against trophozoites of clinical strain A. griffini; type: cell-based, genotype T3; conditions: trophozoite stage
Description: as §1, §2

[8] = system: Acanthamoeba castellanii Neff cysts; assay: In vitro activity against Acanthamoeba castellanii Neff cysts (alamarBlue); type: cell-based; conditions: 168 h, mature cysts, 7 d incubation, read-out: IC50, cysticidal activity against A. castellanii Neff
Description: The cysticidal activity of DT was determined by the alamarBlue™ assay and confirmed visually by inverted microscopy. Cysts of A. castellanii Neff were prepared as previously described. Briefly, trophozoites were transferred from PYG medium based cultures (trophozoite medium) to Neff’s encystment medium (NEM; 0.1 M KCl, 8 mM MgSO4·7H2O, 0.4 mM CaCl2·2H2O, 1 mM NaHCO3, 20 mM ammediol (2-amino-2-methyl-1,3-propanediol; Sigma Aldrich, Madrid, Spain), pH 8.8 at 25 °C) and were cultured in this medium with gentle shaking for a week in order to obtain mature cysts. After that, mature cysts were harvested and washed twice using PYG medium.
A serial dilution of the tested molecules was made in PYG. The in vitro susceptibility assay was performed in sterile 96-well microtiter plates (Corning™). To these wells, containing 50 µL of drug dilutions, 5 × 10^4 mature cysts of Acanthamoeba/mL were added. After 7 d of incubation with the drugs, the plate was centrifuged at 3000 rpm for 10 min. The supernatant was removed and replaced with 100 µL of fresh PYG medium in each well. Finally, 10 μL of the Alamar Blue Assay Reagent (Biosource, Europe, Nivelles, Belgium) was placed into each well, and the plates were then incubated for 144 h at 28 °C. The emitted fluorescence was periodically examined with an Enspire microplate reader (PerkinElmer, Waltham, MA, USA) at 570/585 nm.

C=C(CC[C@H](O)[C@@]1(C)CC[C@H](C(C)(C)O)O1)[C@H]1CC[C@H]2O[C@@H]([C@]3(C)CC[C@@H](Br)C(C)(C)O3)CC[C@]2(C)O1 [Compound 1, dehydrothyrsiferol]
IC50 [1]: 73.4 ± 4.02 µM
mitochondrial membrane potential (JC-1) (A. castellanii Neff [2]): mitochondrial membrane potential collapsed
inhibitory effect on the growth of A. castellanii trophozoites (microscopy) [3]: many of the treated cells were dead
reactive oxygen species (ROS) levels (A. castellanii Neff [4]): increased levels of ROS
ATP level maintained after treatment (A. castellanii): 19.52%
decrease in the total ATP level in comparison to the negative control (A. castellanii): 80.48%
chromatin condensation (Hoechst 33342/propidium iodide double stain) (A. castellanii Neff [5]): induce chromatin condensation
plasma membrane permeability (SYTOX Green) [6]: showed plasmatic membrane damage
IC50 [7]: 56.7 ± 2.09 µM
IC50 [8]: 39.27 ± 0.14 µM
